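Dose response: 5 concentrations. Exposure: 48 h. Format: 96-well plates. Endpoint: linear interpolation; highest concentration if not reached. TGI: concentration producing complete growth inhibition.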
Assays:
Experiment in all cases: NCI anticancer screen, dose series, 48 h
[1] = system: 786-0 renal
[2] = system: A549 NSCLC
[3] = system: ACHN renal
[4] = system: CAKI-1 renal
[5] = system: CCRF-CEM leukemia
[6] = system: COLO 205 colon
[7] = system: DLD-1 colon
[8] = system: EKVX NSCLC
[9] = system: HCT-116 colon
[10] = system: HL-60(TB) leukemia
[11] = system: HOP-18 NSCLC
[12] = system: HOP-92 NSCLC
[13] = system: HT29 colon
[14] = system: IGROV1 ovarian
[15] = system: K-562 leukemia
[16] = system: KM12 colon
[17] = system: KM20L2 colon
[18] = system: LOX IMVI melanoma
[19] = system: LXFL 529 NSCLC
[20] = system: M14 melanoma
[21] = system: MOLT-4 leukemia
[22] = system: NCI-H226 lung
[23] = system: NCI-H23 lung
[24] = system: NCI-H460 lung
[25] = system: NCI-H522 lung
[26] = system: OVCAR-3 ovarian
[27] = system: OVCAR-4 ovarian
[28] = system: OVCAR-5 ovarian
[29] = system: OVCAR-8 ovarian
[30] = system: RPMI-8226 leukemia
[31] = system: RXF 393 renal
[32] = system: RXF-631 renal
[33] = system: SF-268 CNS
[34] = system: SF-295 CNS
[35] = system: SF-539 CNS
[36] = system: SK-MEL-2 melanoma
[37] = system: SK-MEL-28 melanoma
[38] = system: SK-MEL-5 melanoma
[39] = system: SK-OV-3 ovarian
[40] = system: SN12C renal
[41] = system: SNB-19 CNS
[42] = system: SNB-75 CNS
[43] = system: SNB-78 CNS
[44] = system: SR leukemia
[45] = system: SW-620 colon
[46] = system: TK-10 renal
[47] = system: UACC-257 melanoma
[48] = system: UACC-62 melanoma
[49] = system: UO-31 renal
[50] = system: XF 498 CNS
[51] = system: DMS 114 small cell lung
[52] = system: DMS 273 small cell lung
[53] = system: HCC-2998 colon
[54] = system: HCT-15 colon
[55] = system: M19-MEL melanoma
[56] = system: MALME-3M melanoma
[57] = system: U251 CNS
[58] = system: A498 renal
[59] = system: HOP-62 NSCLC

For `C[C@H](C(=O)C12CC3CC(CC(C3)C1)C2)[C@H](O)c1ccccc1`, which TGI [1] is on record?
Its TGI is 55.7 µM.

What about the TGI [2] of the same compound?
Its TGI is greater than 100 µM.

What about the TGI [3] of the same compound?
The TGI was greater than 100 µM.

And the TGI [4]?
Its TGI is 91.2 µM.

What about the TGI [5] of the same compound?
Its TGI is greater than 100 µM.

And the TGI [6]?
The TGI was 28.3 µM.

And the TGI [7]?
Its TGI is greater than 100 µM.

What about the TGI [8] of the same compound?
Its TGI is greater than 100 µM.

And the TGI [9]?
The TGI was 32.3 µM.

What about the TGI [10] of the same compound?
Its TGI is 58.1 µM.

What about the TGI [11] of the same compound?
Its TGI is greater than 100 µM.

And the TGI [12]?
Its TGI is 45.8 µM.

And the TGI [13]?
The TGI was 34.1 µM.

What about the TGI [14] of the same compound?
Its TGI is greater than 100 µM.

And the TGI [15]?
The TGI was greater than 100 µM.

What about the TGI [16] of the same compound?
The TGI was 70.7 µM.

What about the TGI [17] of the same compound?
Its TGI is 43.9 µM.

And the TGI [18]?
The TGI was 32 µM.

What about the TGI [19] of the same compound?
The TGI was greater than 100 µM.

And the TGI [20]?
Its TGI is greater than 100 µM.

And the TGI [21]?
The TGI was greater than 100 µM.

What about the TGI [22] of the same compound?
The TGI was 36.5 µM.

What about the TGI [23] of the same compound?
The TGI was greater than 100 µM.

What about the TGI [24] of the same compound?
Its TGI is greater than 100 µM.

And the TGI [25]?
The TGI was 57.8 µM.

And the TGI [26]?
Its TGI is 63.3 µM.

And the TGI [27]?
The TGI was greater than 100 µM.

What about the TGI [28] of the same compound?
The TGI was 56.2 µM.

What about the TGI [29] of the same compound?
The TGI was greater than 100 µM.

And the TGI [30]?
Its TGI is greater than 100 µM.

And the TGI [31]?
Its TGI is 48.3 µM.

What about the TGI [32] of the same compound?
Its TGI is greater than 100 µM.

And the TGI [33]?
The TGI was 30.2 µM.

What about the TGI [34] of the same compound?
Its TGI is greater than 100 µM.

And the TGI [35]?
Its TGI is 96.5 µM.

And the TGI [36]?
The TGI was 38.8 µM.

And the TGI [37]?
Its TGI is 31.4 µM.

And the TGI [38]?
The TGI was 32 µM.

What about the TGI [39] of the same compound?
Its TGI is greater than 100 µM.

And the TGI [40]?
Its TGI is 36.1 µM.

And the TGI [41]?
Its TGI is greater than 100 µM.

And the TGI [42]?
Its TGI is 75.9 µM.

And the TGI [43]?
Its TGI is greater than 100 µM.

And the TGI [44]?
Its TGI is 78.4 µM.

And the TGI [45]?
Its TGI is greater than 100 µM.

What about the TGI [46] of the same compound?
Its TGI is greater than 100 µM.

What about the TGI [47] of the same compound?
Its TGI is 78.4 µM.

And the TGI [48]?
The TGI was greater than 100 µM.

What about the TGI [49] of the same compound?
Its TGI is 73.5 µM.

And the TGI [50]?
Its TGI is 67.7 µM.

Which results are given for `CCOc1ccc([Se][Se]c2ccc(OCC)cc2)cc1`?
TGI [1]: > 100 µM; TGI [2]: > 100 µM; TGI [4]: 49.6 µM; TGI [6]: > 100 µM; TGI [7]: > 100 µM; TGI [51]: > 100 µM; TGI [52]: > 100 µM; TGI [8]: > 100 µM; TGI [53]: > 100 µM; TGI [9]: > 100 µM; TGI [54]: > 100 µM; TGI [11]: > 100 µM; TGI [14]: > 100 µM; TGI [16]: > 100 µM; TGI [17]: > 100 µM; TGI [19]: > 100 µM; TGI [20]: > 100 µM; TGI [55]: > 100 µM; TGI [56]: > 100 µM; TGI [22]: > 100 µM; TGI [23]: 54.9 µM; TGI [24]: > 100 µM; TGI [25]: > 100 µM; TGI [26]: > 100 µM; TGI [27]: > 100 µM; TGI [28]: > 100 µM; TGI [29]: > 100 µM; TGI [30]: > 100 µM; TGI [31]: > 100 µM; TGI [32]: > 100 µM; TGI [33]: > 100 µM; TGI [34]: > 100 µM; TGI [35]: > 100 µM; TGI [36]: > 100 µM; TGI [37]: > 100 µM; TGI [40]: > 100 µM; TGI [41]: > 100 µM; TGI [42]: > 100 µM; TGI [43]: > 100 µM; TGI [44]: > 100 µM; TGI [45]: > 100 µM; TGI [46]: > 100 µM; TGI [57]: 96.8 µM; TGI [48]: > 100 µM; TGI [49]: > 100 µM

What does the source list for `O=C(CC1(O)C(=O)Nc2c(Cl)cc(Cl)cc21)c1ccc(Br)cc1` (stereo not drawn)?
TGI [1]: 26.4 µM; TGI [58]: > 66 µM; TGI [2]: 44.2 µM; TGI [3]: 28.8 µM; TGI [4]: 33 µM; TGI [5]: > 55 µM; TGI [6]: > 56.1 µM; TGI [7]: 18.9 µM; TGI [51]: > 53.8 µM; TGI [52]: 28.8 µM; TGI [8]: 29.1 µM; TGI [53]: > 56.1 µM; TGI [9]: 34.7 µM; TGI [54]: > 56.3 µM; TGI [10]: 18.6 µM; TGI [11]: 30.4 µM; TGI [59]: 35.7 µM; TGI [12]: 29.7 µM; TGI [13]: > 57.9 µM; TGI [14]: 35.3 µM; TGI [15]: > 72.8 µM; TGI [16]: 30.6 µM; TGI [17]: 32.9 µM; TGI [18]: > 50.2 µM; TGI [19]: > 52.4 µM; TGI [20]: 31.8 µM; TGI [55]: > 20 µM; TGI [56]: > 56.1 µM; TGI [21]: > 63.5 µM; TGI [22]: 29.5 µM; TGI [23]: 29.3 µM; TGI [24]: > 56.3 µM; TGI [25]: 32.4 µM; TGI [26]: 29.8 µM; TGI [27]: 25.6 µM; TGI [28]: 31.4 µM; TGI [29]: > 52.2 µM; TGI [30]: 50.6 µM; TGI [31]: 31.1 µM; TGI [32]: 25.4 µM; TGI [33]: 34.4 µM; TGI [34]: > 55.4 µM; TGI [35]: 31.2 µM; TGI [36]: > 57.8 µM; TGI [37]: 35.1 µM; TGI [38]: 31.3 µM; TGI [39]: 64 µM; TGI [40]: > 50.4 µM; TGI [41]: 35.5 µM; TGI [42]: 39.5 µM; TGI [43]: 47 µM; TGI [44]: 62.1 µM; TGI [45]: > 53 µM; TGI [46]: 32.1 µM; TGI [57]: 26.9 µM; TGI [47]: > 51.3 µM; TGI [48]: 23.2 µM; TGI [49]: 17.4 µM
